{
  "source": "paper PMC8246065",
  "about": "(The EMBO Journal, 2021)",
  "key": {"NOD1∆LRR": {"target": "T1, NOD1∆LRR (Homo sapiens, UniProt Q9Y239)", "T1 sequence (Q9Y239 1-531 limits assumed)": "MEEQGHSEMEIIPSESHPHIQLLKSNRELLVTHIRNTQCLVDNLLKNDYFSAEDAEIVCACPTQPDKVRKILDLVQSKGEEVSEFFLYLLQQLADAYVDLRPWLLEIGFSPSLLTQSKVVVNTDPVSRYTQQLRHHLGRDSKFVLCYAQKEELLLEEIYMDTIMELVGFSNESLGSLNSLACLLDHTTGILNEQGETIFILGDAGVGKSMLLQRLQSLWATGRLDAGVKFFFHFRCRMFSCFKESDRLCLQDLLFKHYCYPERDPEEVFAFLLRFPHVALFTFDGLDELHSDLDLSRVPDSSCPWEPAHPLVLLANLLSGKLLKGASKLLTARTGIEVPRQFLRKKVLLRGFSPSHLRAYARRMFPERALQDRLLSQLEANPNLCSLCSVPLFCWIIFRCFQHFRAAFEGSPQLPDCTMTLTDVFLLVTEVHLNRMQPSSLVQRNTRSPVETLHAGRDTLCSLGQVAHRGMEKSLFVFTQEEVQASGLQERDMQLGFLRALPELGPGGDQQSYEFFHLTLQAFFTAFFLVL", "assay": "MST with cell lysates expressing NOD1 mutants", "type": "binding", "conditions": "Fig EV5D", "quoted_text": "Binding of NOD1, NOD2, GFP, or NLRP3‐GFP to different ligands was measured by microscale thermophoresis (MST). 20 nM GFP or GFP‐tagged proteins in MST buffer (PBS pH 7.4, containing 0.5% NP‐40 and 10 mM DTT) was incubated with different concentrations of ligands. Immediately, samples were loaded into standard glass capillaries (NanoTemper) and thermophoresis analysis was performed on a NanoTemper Monolith NT.115 instrument (40% LED, 80% MST power) at 22°C. A laser on‐time of 30 s and a laser off‐time of 5 s were used. The experiment was performed in triplicates, and the MST curves were fitted using NT analysis software to obtain the K d values."}, "[1]": {"system": "HEK293T WT and NOD1/2 KO NF‐κB reporter cells", "assay": "NF-κB luciferase assay and IL8 qRT-PCR in HEK293T WT and NOD1/2 KO cells", "type": "cell-based, human", "conditions": "cytosolic S1P, HEK293T WT vs NOD1/2 KO", "method": "HEK293T WT and NOD1/2 KO NF‐κB reporter cells were seeded in 96‐well plates and stimulated with various stressors for 8 h. Then, cells were lysed in lysis buffer (Thermo Fisher Scientific) and luciferase activities were determined with firefly luciferase glow kit (Thermo Fisher Scientific) according to the manufacturer’s instructions. Luciferase activities were normalized to the amount of protein determined with Coomassie Plus kit (Thermo Fisher Scientific). Fold inductions were calculated against normalized luciferase activities of corresponding controls.\nTotal RNA was isolated with TRIzol reagent, as described by the manufacturer (Invitrogen). RNA (1 μg) was used to generate cDNA via the iScript cDNA Synthesis Kit (Bio‐Rad), and qRT–PCR was performed using Power SYBR Green Master Mix (Applied Biosystems) in a StepOne Plus thermocycler (Applied Biosystems). The average threshold cycle (Ct) of quadruplicate reactions was employed for all subsequent calculations using the ΔΔCt method. Gene expression was normalized to glyceraldehyde‐3‐phosphate dehydrogenase (GAPDH), and fold changes were calculated against corresponding controls. qRT–PCR data were representative of at least three independent experiments, with at least 2 technical replicates per experiment. […]"}, "BMDMs": {"system": "BMDMs", "assay": "Il6 expression and multiplex cytokine production in WT, Nod1/2 KO and Rip2 KO BMDMs", "type": "cell-based, mice", "conditions": "S1P 10 µM with digitonin (2.5 µg/ml); WT vs Nod1/2 KO and Rip2 KO", "method": "The human monocytic cell line THP‐1 was obtained from the American Type Culture Collection (ATCC, TIB‐202) and maintained in RPMI 1640 (Gibco, 31870) with 10% (v:v) heat‐inactivated fetal bovine serum (FBS, Sigma‐Aldrich, F0804), 1 mM sodium pyruvate (Gibco, 11360070), 2 mM L‐glutamine (Gibco, 25030081), 10 mM HEPES buffer (Gibco, 15630080), pH 7.2‐7.5, and 50 µM 2‐mercaptoethanol (Gibco, 31350010). To differentiate THP‐1 into macrophage‐like cells, THP‐1 cells were stimulated with 50 ng/ml phorbol 12‐myristate 13‐acetate (Sigma‐Aldrich, P8139) for 24 h and then incubated with fresh medium for another 48 h. HEK293T WT and HEK293T NOD1/2 dKO cells were generated as described (Dagil et al, 2016). […]\nTotal RNA was isolated with TRIzol reagent, as described by the manufacturer (Invitrogen). […] Gene expression was normalized to glyceraldehyde‐3‐phosphate dehydrogenase (GAPDH), and fold changes were calculated against corresponding controls. qRT–PCR data were representative of at least three independent experiments, with at least 2 technical replicates per experiment. […]"}, "HeLa NOD1 or NOD2 cells": {"system": "HeLa NOD1 or NOD2 cells", "assay": "Western blot analysis in HeLa NOD1 or NOD2 cells", "type": "cell-based, human", "method": "Cells were lysed in RIPA buffer supplemented with protease inhibitor cocktail and PhosSTOP (Roche, 4906837001) on ice for 10 min. After centrifugation at 16,000 × g for 10 min, supernatants were heated with SDS sample buffer at 95°C for 10 min. Proteins were separated on 4–15% SDS gels (Bio‐Rad, 4561086) and transferred onto nitrocellulose membranes. The membranes were incubated with primary antibodies at 4°C overnight and secondary antibodies at RT for 1 h, respectively. All antibodies were diluted in PBS supplemented with 0.1% Tween‐20 (Sigma‐Aldrich, P1379) and 5% BSA. Membranes were developed with ECL detection Kit (Thermo Fisher Scientific, 34094) and exposed with ChemiDoc (Bio‐Rad). The antibody against ACTB/β‐actin was used as loading control."}},
  "data": [
    {"smiles": "CCCCCCCCCCCCC/C=C/[C@@H](O)[C@@H](N)COP(=O)(O)O", "note": "[S1P, sphingosine‐1‐phosphate]", "values": [
      {"measurement": "Interaction with NOD1∆LRR by MST", "setting": "NOD1∆LRR", "value": "still interacted"},
      {"measurement": "NF-κB activation and IL8 expression", "setting": "[1]", "value": "induced NOD1/2‐dependent NF‐κB activation and IL8 expression"},
      {"measurement": "Il6 expression and production of IL6, CXCL2, CCL5 and IL16", "setting": "BMDMs", "value": "markedly impaired in Nod1/2 KO and Rip2 KO BMDMs"},
      {"measurement": "NOD1 or NOD2 degradation", "setting": "HeLa NOD1 or NOD2 cells; 20 µM with digitonin, Fig EV4G", "value": "did not induce NOD1 or NOD2 degradation"},
      {"measurement": "MAPK activation and NF-κB activation", "setting": "HeLa NOD1 or NOD2 cells; cytosolic S1P 20 µM", "value": "triggered MAPK activation and NF‐κB activation"}
    ]}
  ]
}
